Data taken from patent US10294202B2, “Pyrrolidinones as herbicides” (FMC Corporation, priority 2013, dated 2019).

How the values were obtained:
corn = assay: Test A pre-/postemergence herbicide test; type: in vivo, Zea mays; conditions: for Corn plant response rating: visual rating on 0 to 100 scale (0 no effect, 100 complete control)
How it was run: (§1)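 Scoring was visual, relative to untreated controls, on a 0–100 scale after about 10 greenhouse days. Preemergence treatment used a directed soil spray over seeded loam/sand; postemergence treatment targeted one- to two-leaf plants of 2–10 cm.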

wheat = assay: Test A pre-/postemergence herbicide test; type: in vivo, Triticum aestivum
How it was run: as §1

rice = assay: Test B flooded paddy test; type: in vivo, Oryza sativa; conditions: Flood, scale of 0 to 100 where 0 is no effect and 100 is complete control
How it was run: (§2)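 First, plants reach the 2-leaf stage; next, pots are flooded to 3 cm and compound is delivered into the water; finally, after 13 to 15 greenhouse days at constant depth, injury is graded visually from 0 to 100 against controls.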

giant foxtail = assay: Test A pre-/postemergence herbicide test; type: in vivo, Setaria faberii; conditions: for Foxtail, Giant plant response rating: visual rating on 0 to 100 scale (0 no effect, 100 complete control)
How it was run: as §1

crabgrass, large = assay: Test A pre-/postemergence herbicide test; type: in vivo, Digitaria sanguinalis; conditions: for Crabgrass, Large plant response rating: visual rating on 0 to 100 scale (0 no effect, 100 complete control)
How it was run: as §1

sedge, umbrella = assay: Test B flooded paddy test; type: in vivo, Cyperus difformis; conditions: Flood, scale of 0 to 100 where 0 is no effect and 100 is complete control
How it was run: as §2

morningglory = assay: Test A pre-/postemergence herbicide test; type: in vivo, Ipomoea spp.
How it was run: as §1

ducksalad = assay: Test B flooded paddy test; type: in vivo, Heteranthera limosa; conditions: Flood, scale of 0 to 100 where 0 is no effect and 100 is complete control
How it was run: as §2

barnyardgrass [1] = assay: Test B flooded paddy test; type: in vivo, Echinochloa crus-galli; conditions: Flood, scale of 0 to 100 where 0 is no effect and 100 is complete control
How it was run: as §2

barnyardgrass [2] = assay: Test A pre-/postemergence herbicide test; type: in vivo, Echinochloa crus-galli; conditions: for Barnyardgrass plant response rating: visual rating on 0 to 100 scale (0 no effect, 100 complete control)
How it was run: as §1

velvetleaf = assay: Test A pre-/postemergence herbicide test; type: in vivo, Abutilon theophrasti; conditions: for Velvetleaf plant response rating: visual rating on 0 to 100 scale (0 no effect, 100 complete control)
How it was run: as §1

pigweed = assay: Test A pre-/postemergence herbicide test; type: in vivo, Amaranthus retroflexus
How it was run: as §1

[3] = preemergence, 500 g ai/ha, 0 to 100 scale
[4] = Postemergence, 125 g ai/ha, 0 to 100 scale, 0 no effect, 100 complete control
[5] = Postemergence, 500 g ai/ha, 0 to 100 scale (0 no effect, 100 complete control)
[6] = Preemergence, 125 g ai/ha, visual rating on 0 to 100 scale (0 no effect, 100 complete control)
[7] = preemergence, 500 g ai/ha, 0 to 100 scale (0 no effect, 100 complete control)
[8] = Postemergence, 125 g ai/ha, 0 to 100 scale, 0 is no effect, 100 is complete control
[9] = Preemergence, 125 g ai/ha, 0 to 100 scale where 0 is no effect and 100 is complete control
[10] = preemergence, 500 g ai/ha, 0 to 100 scale, 0 is no effect and 100 is complete control
[11] = Postemergence, 125 g ai/ha, visual rating on 0 to 100 scale (0 no effect, 100 complete control), approx. 10 days

COc1ncccc1NC(=O)C1C(=O)NCC1c1ccc(F)c(F)c1 (centres unmarked) [Compound 46]
50: Plant response rating, Barnyardgrass (barnyardgrass [2]; [7])
0: Corn plant response rating (corn; Preemergence, 125 g ai/ha) | Plant response rating, Corn (corn; [3]) | Plant response rating, Wheat (wheat; [4]) | Plant response rating, Wheat (wheat; [5]) | Wheat plant response rating (wheat; [6]) | Plant response rating, Wheat (wheat; [3]) | Plant response rating, Rice (rice; 250 g ai/ha) | Plant response rating, Foxtail, Giant (giant foxtail; [4]) | Plant response rating, Sedge, Umbrella (sedge, umbrella; 250 g ai/ha) | Plant response rating, Morningglory (morningglory; [4]) | Plant response rating, Morningglory (morningglory; [5]) | Morningglory plant response rating (morningglory; [6]) | Plant response rating, Morningglory (morningglory; [3]) | Plant response rating, Ducksalad (ducksalad; 250 g ai/ha) | Plant response rating, Barnyardgrass (barnyardgrass [1]; 250 g ai/ha) | Plant response rating, Barnyardgrass (barnyardgrass [2]; [4]) | Plant response rating, Barnyardgrass (barnyardgrass [2]; [5]) | Barnyardgrass plant response rating (barnyardgrass [2]; Preemergence, 125 g ai/ha) | Plant response rating, Velvetleaf (velvetleaf; [4]) | Plant response rating, Velvetleaf (velvetleaf; [5]) | Velvetleaf plant response rating (velvetleaf; Preemergence, 125 g ai/ha) | Plant response rating, Velvetleaf (velvetleaf; [3]) | Plant response rating, Pigweed (pigweed; [4]) | Plant response rating, Pigweed (pigweed; [5]) | Pigweed plant response rating (pigweed; [6]) | Plant response rating, Pigweed (pigweed; [3])
70: Crabgrass, Large plant response rating (crabgrass, large; Preemergence, 125 g ai/ha)
30: Plant response rating, Crabgrass, Large (crabgrass, large; [4])
90: Plant response rating, Crabgrass, Large (crabgrass, large; [3])
60: Plant response rating, Crabgrass, Large (crabgrass, large; [5])
80: Plant response rating, Foxtail, Giant (giant foxtail; [3])
40: Plant response rating, Foxtail, Giant (giant foxtail; [5]) | Foxtail, Giant plant response rating (giant foxtail; Preemergence, 125 g ai/ha)

O=C1NCC(c2ccc(Cl)c(C(F)(F)F)c2)C1C(=O)Nc1cccc(F)c1F (racemic) [Compound 268]
50: Plant response rating, Barnyardgrass (barnyardgrass [2]; [8]) | Plant response rating, Pigweed (pigweed; [11])
0: Plant response rating, Corn (corn; [8]) | Plant response rating, Corn (corn; [9]) | Plant response rating, Wheat (wheat; [11]) | Plant response rating, Wheat (wheat; [5]) | Plant response rating, Wheat (wheat; [9]) | Plant response rating, Wheat (wheat; [10]) | Plant response rating, Sedge, Umbrella (sedge, umbrella; 1000 g ai/ha) | Plant response rating, Morningglory (morningglory; [5]) | Plant response rating, Morningglory (morningglory; [9]) | Plant response rating, Barnyardgrass (barnyardgrass [1]; 1000 g ai/ha) | Plant response rating, Velvetleaf (velvetleaf; [9]) | Plant response rating, Velvetleaf (velvetleaf; [10])
60: Plant response rating, Morningglory (morningglory; [10]) | Plant response rating, Pigweed (pigweed; [10])
100: Plant response rating, Ducksalad (ducksalad; 1000 g ai/ha)
20: Plant response rating, Rice (rice; 1000 g ai/ha) | Plant response rating, Morningglory (morningglory; [11])
40: Plant response rating, Corn (corn; [5])
80: Plant response rating, Corn (corn; [10]) | Plant response rating, Foxtail, Giant (giant foxtail; [8]) | Plant response rating, Foxtail, Giant (giant foxtail; [10]) | Plant response rating, Crabgrass, Large (crabgrass, large; [5]) | Plant response rating, Crabgrass, Large (crabgrass, large; [9]) | Plant response rating, Barnyardgrass (barnyardgrass [2]; [10]) | Plant response rating, Pigweed (pigweed; [5])
30: Plant response rating, Pigweed (pigweed; [9])
90: Plant response rating, Foxtail, Giant (giant foxtail; [5]) | Plant response rating, Crabgrass, Large (crabgrass, large; [10])
70: Plant response rating, Foxtail, Giant (giant foxtail; [9]) | Plant response rating, Crabgrass, Large (crabgrass, large; [8]) | Plant response rating, Barnyardgrass (barnyardgrass [2]; [5]) | Plant response rating, Barnyardgrass (barnyardgrass [2]; [9])

O=C1NCC(c2ccc(C(F)(F)F)c(Cl)c2)C1C(=O)Nc1ccccc1C(F)(F)F (racemic) [Compound 251]
30: Plant response rating, Crabgrass, Large (crabgrass, large; [5]) | Plant response rating, Barnyardgrass (barnyardgrass [2]; [5]) | Plant response rating, Pigweed (pigweed; [10])
80: Plant response rating, Foxtail, Giant (giant foxtail; [10]) | Plant response rating, Crabgrass, Large (crabgrass, large; [9]) | Plant response rating, Barnyardgrass (barnyardgrass [2]; [10])
90: Plant response rating, Crabgrass, Large (crabgrass, large; [10]) | Plant response rating, Ducksalad (ducksalad; 1000 g ai/ha)
20: Plant response rating, Foxtail, Giant (giant foxtail; [5]) | Plant response rating, Barnyardgrass (barnyardgrass [2]; [9]) | Plant response rating, Pigweed (pigweed; [5])
40: Plant response rating, Foxtail, Giant (giant foxtail; [9])
0: Plant response rating, Corn (corn; [8]) | Plant response rating, Corn (corn; [5]) | Plant response rating, Corn (corn; [9]) | Plant response rating, Corn (corn; [10]) | Plant response rating, Wheat (wheat; [8]) | Plant response rating, Wheat (wheat; [5]) | Plant response rating, Wheat (wheat; [9]) | Plant response rating, Wheat (wheat; [10]) | Plant response rating, Rice (rice; 1000 g ai/ha) | Plant response rating, Foxtail, Giant (giant foxtail; [8]) | Plant response rating, Crabgrass, Large (crabgrass, large; [8]) | Plant response rating, Sedge, Umbrella (sedge, umbrella; 1000 g ai/ha) | Plant response rating, Morningglory (morningglory; [8]) | Plant response rating, Morningglory (morningglory; [5]) | Plant response rating, Morningglory (morningglory; [9]) | Plant response rating, Morningglory (morningglory; [10]) | Plant response rating, Barnyardgrass (barnyardgrass [2]; [8]) | Plant response rating, Velvetleaf (velvetleaf; [8]) | Plant response rating, Velvetleaf (velvetleaf; [5]) | Plant response rating, Velvetleaf (velvetleaf; [9]) | Plant response rating, Velvetleaf (velvetleaf; [10]) | Plant response rating, Pigweed (pigweed; [8]) | Plant response rating, Pigweed (pigweed; [9])
45: Plant response rating, Barnyardgrass (barnyardgrass [1]; 1000 g ai/ha)

O=C1NCC(c2ccc(F)c(F)c2)C1C(=O)Nc1ccccc1Br (centres unmarked) [Compound 55]
20: Barnyardgrass plant response rating (barnyardgrass [2]; Preemergence, 125 g ai/ha)
80: Plant response rating, Foxtail, Giant (giant foxtail; [5]) | Plant response rating, Crabgrass, Large (crabgrass, large; [4]) | Plant response rating, Crabgrass, Large (crabgrass, large; [5]) | Crabgrass, Large plant response rating (crabgrass, large; Preemergence, 125 g ai/ha) | Plant response rating, Barnyardgrass (barnyardgrass [2]; [7])
50: Plant response rating, Rice (rice; 250 g ai/ha) | Plant response rating, Barnyardgrass (barnyardgrass [1]; 250 g ai/ha)
30: Plant response rating, Barnyardgrass (barnyardgrass [2]; [4])
75: Plant response rating, Ducksalad (ducksalad; 250 g ai/ha)
90: Plant response rating, Foxtail, Giant (giant foxtail; [3]) | Plant response rating, Crabgrass, Large (crabgrass, large; [3]) | Plant response rating, Barnyardgrass (barnyardgrass [2]; [5])
70: Plant response rating, Foxtail, Giant (giant foxtail; [4]) | Foxtail, Giant plant response rating (giant foxtail; Preemergence, 125 g ai/ha) | Plant response rating, Sedge, Umbrella (sedge, umbrella; 250 g ai/ha)
0: Plant response rating, Corn (corn; [4]) | Plant response rating, Corn (corn; [5]) | Corn plant response rating (corn; Preemergence, 125 g ai/ha) | Plant response rating, Corn (corn; [3]) | Plant response rating, Wheat (wheat; [4]) | Plant response rating, Wheat (wheat; [5]) | Wheat plant response rating (wheat; [6]) | Plant response rating, Wheat (wheat; [3]) | Plant response rating, Morningglory (morningglory; [4]) | Plant response rating, Morningglory (morningglory; [5]) | Morningglory plant response rating (morningglory; [6]) | Plant response rating, Morningglory (morningglory; [3]) | Plant response rating, Velvetleaf (velvetleaf; [4]) | Plant response rating, Velvetleaf (velvetleaf; [5]) | Velvetleaf plant response rating (velvetleaf; Preemergence, 125 g ai/ha) | Plant response rating, Velvetleaf (velvetleaf; [3]) | Plant response rating, Pigweed (pigweed; [4]) | Plant response rating, Pigweed (pigweed; [5]) | Pigweed plant response rating (pigweed; [6]) | Plant response rating, Pigweed (pigweed; [3])

O=C1NCC(c2ccc(F)c(F)c2)C1C(=O)Nc1cccc(F)c1C(F)(F)F (centres unmarked) [Compound 67]
90: Plant response rating, Foxtail, Giant (giant foxtail; [5]) | Plant response rating, Foxtail, Giant (giant foxtail; [3]) | Plant response rating, Crabgrass, Large (crabgrass, large; [5]) | Crabgrass, Large plant response rating (crabgrass, large; Preemergence, 125 g ai/ha) | Plant response rating, Crabgrass, Large (crabgrass, large; [3])
20: Plant response rating, Pigweed (pigweed; [5])
50: Plant response rating, Crabgrass, Large (crabgrass, large; [4]) | Plant response rating, Sedge, Umbrella (sedge, umbrella; 250 g ai/ha)
70: Plant response rating, Ducksalad (ducksalad; 250 g ai/ha) | Plant response rating, Barnyardgrass (barnyardgrass [2]; [7])
60: Plant response rating, Barnyardgrass (barnyardgrass [2]; [5])
40: Plant response rating, Barnyardgrass (barnyardgrass [2]; [4])
80: Plant response rating, Foxtail, Giant (giant foxtail; [4]) | Foxtail, Giant plant response rating (giant foxtail; Preemergence, 125 g ai/ha)
0: Plant response rating, Corn (corn; [4]) | Plant response rating, Corn (corn; [5]) | Corn plant response rating (corn; Preemergence, 125 g ai/ha) | Plant response rating, Corn (corn; [3]) | Plant response rating, Wheat (wheat; [4]) | Plant response rating, Wheat (wheat; [5]) | Wheat plant response rating (wheat; [6]) | Plant response rating, Wheat (wheat; [3]) | Plant response rating, Rice (rice; 250 g ai/ha) | Plant response rating, Morningglory (morningglory; [4]) | Plant response rating, Morningglory (morningglory; [5]) | Morningglory plant response rating (morningglory; [6]) | Plant response rating, Morningglory (morningglory; [3]) | Plant response rating, Barnyardgrass (barnyardgrass [1]; 250 g ai/ha) | Plant response rating, Velvetleaf (velvetleaf; [4]) | Plant response rating, Velvetleaf (velvetleaf; [5]) | Velvetleaf plant response rating (velvetleaf; Preemergence, 125 g ai/ha) | Plant response rating, Velvetleaf (velvetleaf; [3]) | Plant response rating, Pigweed (pigweed; [4]) | Pigweed plant response rating (pigweed; [6]) | Plant response rating, Pigweed (pigweed; [3])
30: Barnyardgrass plant response rating (barnyardgrass [2]; Preemergence, 125 g ai/ha)
